Values of other authors, collected in patent US20070135395A1, “Novel method for the preparation of intermediates useful for the synthesis fo vitamin d analogues” (Leo Pharma A/S, priority 2004, published 2007).

Test system: epidermal keratinocytes
Conditions: cited: Castelijins et al., Acta Derm. Venereol. 79, 11, 1999

C=C1/C(=C\C=C2/CCC[C@]3(C)[C@@H]([C@H](C)/C=C/[C@@H](O)C4CC4)CC[C@@H]23)C[C@@H](O)C[C@@H]1O [Calcipotriol, (5Z, 7E, 22E, 24S)-24-cyclopropyl-9,10-secochola-5,7,10(19),22-tetraene-1α-3β-24-triol]
activity in inhibiting undesirable proliferation of epidermal keratinocytes: strong activity
